# Laboratory results from patent US9632075B2, “Prevention or attenuation of neuropathic pain by bile acids” (Metselex, Inc., priority 2011, dated 2017).
# Tests used:
# Assay type in all cases: in vivo, rat
# paw withdrawal threshold = assay: von Frey testing for tactile hypersensitivity after SNL; conditions: for withdrawal threshold of the ipsilateral hindpaw: TUDCA 300 mg/kg i.p.
# Excerpt: (§1) Rats were divided into two experimental groups: a group in which the L5 spinal nerve was ligated and cut, and a sham-operated control group. The left L5 spinal nerve was isolated, tightly ligated and cut distal to the ligation under isoflurane anesthesia (1.5%). The surgical procedure for the sham-operated group was identical to that of the SNL group, except that the L5 spinal nerve was not ligated or cut. General behavior of the rats was monitored before and after the surgery. Any rats showing difficulty elevating a hindpaw were discarded from the study.
# (§2) Rats were treated with 5,7-dihydroxytryptamine (5,7-DHT: 100 μg/10 μl, intracisternal injection) to induce loss of RVM serotonergic neurons. Rats were randomly assigned to one of four groups for these experiments: (1) L5 SNL with 5,7-DHT; (2) L5 SNL with vehicle injection; (3) sham with 5,7-DHT; and (4) sham with vehicle. Injections were given ten days after surgery; animals receiving vehicle injections received sterile saline (10 μl, intracisternal injection). To prevent damage to noradrenergic (NE) neurons, the inventors pre-treated animals 30 minutes before 5,7-DHT and saline administration with desipramine (20 mg/kg i.p.), an inhibitor of neuronal NE reuptake. To test the effects of inhibiting apoptosis on SNL, the inventors administered a systemically active inhibitor of apoptosis, tauroursodeoxycholic acid (TUDCA) (300 mg/kg i.p. or saline prior to and after surgery. For each group, injections were given every-other day, starting 3 days prior to surgery and continuing until sacrifice. To confirm the efficacy of TUDCA, the inventors tested its effects on dexamethasone-induced apoptosis in thymus. Two TUDCA injections (300 mg/kg i.p.) were given: one to two days prior to dexamethasone (1 mg/kg i.p.) administration and one the day of dexamethasone administration. Control animals were given saline injections instead of TUDCA solution. Rats were killed one day after dexamethasone administration.
# Mechanical sensitivity was determined by measuring the paw withdrawal threshold in response to the application of von Frey filaments, using the up-down method of Chaplan. In brief, rats were placed on a wire mesh surface, covered by an inverted plastic cage and allowed to habituate for 15 min. Filaments were then applied to the plantar surface of the hindpaw. If application of the filament evoked no response, the next-larger filament was applied; if application elicited withdrawal, the next-smaller filament was applied. This sequence was repeated until the largest filament was used or until four filaments were applied after the first withdrawal was noted. Withdrawal thresholds were measured prior to surgery and at 2-3 day intervals after surgery. In all cases, thresholds were measured bilaterally.
# RVM glia = assay: number of RVM glia after SNL (Nissl-stained tissue); conditions: SNL rats
# Excerpt: as §1, §2
# Conventional microscopy was used to collect images of the RVM for cell counting. An Olympus BX50 fluorescence microscope (Tokyo, Japan) equipped with filter sets designed to allow selective visualization of Cy2 and Cy3 was used. Microscopic images were collected with a Scion 1346 digital camera. Confocal images were collected using an Olympus FluoView FV1000 microscope (Tokyo, Japan). ImageJ 1.29 (developed at NIH and available at http://rsb.info.nih.gov/ij/) or Photoshop were used to adjust contrast and brightness in images. […]
# stereological methods were used for quantification as described previously. […] The sampling interval thereafter was determined based on the number of sections within the RVM and was usually every sixth section. […]
# thymus = assay: dexamethasone-induced apoptosis in thymus (caspase-3 labeling); conditions: TUDCA 300 mg/kg i.p., two injections; dexamethasone 1 mg/kg i.p.
# Description: as §2, with “Rats were killed one day after dexamethasone administration.” left out
# RVM 5-HT neurons = assay: number of RVM 5-HT (TPH-ir) neurons after SNL, stereological cell counting
# Excerpt: as §1, §2
# (§3) The RVM and spinal cord were sectioned using a freezing microtome (Leica, SM2400) at a nominal thickness of 50 μm. […]
# RVM neurons = assay: number of RVM neurons after spinal nerve ligation (SNL), stereological cell counting
# Excerpt: as §1, §2, §3
Structure (SMILES),"mechanical hypersensitivity after SNL (paw withdrawal threshold; 5,7-DHT 100 μg/10 μl intracisternal injection ten days after surgery)","number of RVM glia contralateral after SNL (RVM glia; TUDCA, contralateral, vehicle 80,086±2,899)","number of RVM glia ipsilateral after SNL (RVM glia; TUDCA, ipsilateral, vehicle 85,541±2,972)","RVM glia contralateral, fewer than vehicle (RVM glia; contralateral, p<0.05)","RVM glia ipsilateral, fewer than vehicle (RVM glia; ipsilateral, p<0.05, n=7 TUDCA, n=6 vehicle)",caspase-3 labeling in thymus compared to dexamethasone alone (thymus),"withdrawal threshold of the ipsilateral hindpaw (paw withdrawal threshold; Day 4 post-SNL, vehicle 1.1±0.3 g)","withdrawal threshold of the ipsilateral hindpaw (paw withdrawal threshold; Day 6 post-SNL, vehicle 1.3±0.2 g)","withdrawal threshold of the ipsilateral hindpaw (paw withdrawal threshold; Day 8 post-SNL, vehicle 1.2±0.3 g)","withdrawal threshold of the ipsilateral hindpaw (paw withdrawal threshold; Day 10 post-SNL, vehicle 1.2±0.2 g)",SNL-induced mechanical hypersensitivity (paw withdrawal threshold; TUDCA 300 mg/kg i.p. every-other day),"tactile hypersensitivity one-to-three days after SNL (paw withdrawal threshold; one-to-three days after SNL, TUDCA)","number of RVM 5-HT neurons contralateral to SNL (RVM 5-HT neurons; SNL rats, TUDCA 300 mg/kg i.p., contralateral)","number of RVM 5-HT neurons ipsilateral to SNL (RVM 5-HT neurons; SNL rats, TUDCA 300 mg/kg i.p., ipsilateral, vehicle 1,043±118)","number of RVM 5-HT neurons ipsilateral, higher than in vehicle-treated rats (RVM 5-HT neurons; ipsilateral, p<0.05, n=8)","number of RVM neurons ipsilateral to the lesion (RVM neurons; SNL rats, TUDCA 300 mg/kg i.p. every-other day, ipsilateral, vehicle 12,540±930)","number of RVM neurons contralateral to SNL (RVM neurons; SNL rats, TUDCA 300 mg/kg i.p., contralateral, saline 16,949±1,074)","number of RVM neurons ipsilateral, higher than in vehicle-treated SNL rats (RVM neurons; ipsilateral, p<0.05, n=8)"
"NCCc1c[nH]c2c(O)cc(O)cc12 [5,7-DHT, 5,7-dihydroxytryptamine]",partially reversed,–,–,–,–,–,–,–,–,–,–,–,–,–,–,–,–,–
"C[C@H](CCC(=O)NCCS(=O)(=O)O)[C@H]1CC[C@H]2[C@@H]3[C@@H](O)C[C@@H]4C[C@H](O)CC[C@]4(C)[C@H]3CC[C@]12C [TUDCA, tauroursodeoxycholic acid]",–,"60,437±4,315","62,306±3,736",25%,27%,marked decrease,3.5 ± 0.5 g,4.0 ± 0.5 g,4.6 ± 1.1 g,5.2 ± 1.3 g,partially reversed,does not reduce hypersensitivity,"1,251±99","1,353±96",30%,"17,976±1,202","16,675±828",43%
